Results taken from ChEMBL document CHEMBL4818999, “Pyrido[2, 3-d]pyrimidin-7(8H)-ones as new selective orally bioavailable Threonine Tyrosine Kinase (TTK) inhibitors” (Eur J Med Chem, 2021).

Tests used:
[1] = target: Phosphatidylinositol 4,5-bisphosphate 3-kinase catalytic subunit delta isoform (Homo sapiens, UniProt O00329); experiment: Binding affinity to wild-type human partial length PIK3CD (R108 to Q1044 residues) expressed in HEK293 cells by active site-directed competition binding based Kinomescan method; format: cell-based
Sequence of Phosphatidylinositol 4,5-bisphosphate 3-kinase catalytic subunit delta isoform (O00329 whole entry, the tested form may be a part, canonical isoform): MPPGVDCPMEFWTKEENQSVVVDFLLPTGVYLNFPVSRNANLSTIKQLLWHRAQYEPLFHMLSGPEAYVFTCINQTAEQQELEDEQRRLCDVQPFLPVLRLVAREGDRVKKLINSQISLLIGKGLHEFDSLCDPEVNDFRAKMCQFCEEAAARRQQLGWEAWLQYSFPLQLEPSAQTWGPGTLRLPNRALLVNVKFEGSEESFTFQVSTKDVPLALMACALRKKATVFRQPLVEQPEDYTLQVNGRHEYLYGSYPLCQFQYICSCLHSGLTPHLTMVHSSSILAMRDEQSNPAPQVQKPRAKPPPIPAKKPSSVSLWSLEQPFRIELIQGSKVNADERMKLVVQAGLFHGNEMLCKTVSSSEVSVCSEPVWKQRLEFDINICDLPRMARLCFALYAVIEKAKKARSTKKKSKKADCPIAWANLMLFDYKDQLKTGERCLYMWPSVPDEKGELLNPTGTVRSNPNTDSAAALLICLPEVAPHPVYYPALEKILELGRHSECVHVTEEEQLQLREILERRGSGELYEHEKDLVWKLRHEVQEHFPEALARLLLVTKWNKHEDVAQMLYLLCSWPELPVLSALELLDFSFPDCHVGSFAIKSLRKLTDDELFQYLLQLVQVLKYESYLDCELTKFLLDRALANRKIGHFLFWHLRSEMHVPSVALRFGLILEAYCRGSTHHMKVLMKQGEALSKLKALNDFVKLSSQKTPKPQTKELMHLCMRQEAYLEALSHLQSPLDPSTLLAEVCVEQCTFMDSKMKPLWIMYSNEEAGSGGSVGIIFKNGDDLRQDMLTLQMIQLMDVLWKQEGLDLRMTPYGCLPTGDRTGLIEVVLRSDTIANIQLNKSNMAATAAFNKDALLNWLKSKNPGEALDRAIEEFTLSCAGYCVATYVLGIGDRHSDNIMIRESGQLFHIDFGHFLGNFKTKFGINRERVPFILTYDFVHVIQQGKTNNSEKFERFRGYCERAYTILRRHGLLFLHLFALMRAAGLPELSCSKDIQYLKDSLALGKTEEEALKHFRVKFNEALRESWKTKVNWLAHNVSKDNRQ

[2] = target: Phosphatidylinositol 3-kinase C2 domain-containing subunit gamma (Homo sapiens, UniProt O75747); experiment: Binding affinity to human partial length PIK3C2G (M1 to I1446 residues) expressed in mammalian expression system by active site-directed competition binding based Kinomescan method
[3] = target: T1, Interleukin-1 receptor-associated kinase 1 (Homo sapiens, UniProt P51617); experiment: Binding affinity to wild-type human partial length IRAK1 (R194 to S712 residues) expressed in mammalian expression system by active site-directed competition binding based Kinomescan method
[4] = test system: HCT-116; experiment: Antiproliferative activity against human HCT-116 cells assessed as growth inhibition after 96 hrs by CCK8 assay; format: functional, cell-based; conditions: HCT-116, 96 h
[5] = test system: NCI-H460; experiment: Antiproliferative activity against human NCI-H460 cells assessed as growth inhibition after 96 hrs by CCK8 assay; format: functional, cell-based; conditions: NCI-H460, 96 h
[6] = test system: HCT-116; experiment: Induction of apoptosis in human HCT-116 cells assessed as viable cells at 111.1 nM incubated for 48 hrs by annexin V and 7-AAD staining based flow cytometry analysis (reference value: 82.09 %); format: functional; conditions: read-out: Activity
[7] = test system: HCT-116; experiment: Induction of apoptosis in human HCT-116 cells assessed as early apoptotic cells at 111.1 nM incubated for 48 hrs by annexin V and 7-AAD staining based flow cytometry analysis (reference value: 8.12 %); format: functional
[8] = test system: HCT-116; experiment: Induction of apoptosis in human HCT-116 cells assessed as early apoptotic cells at 1000 nM incubated for 48 hrs by annexin V and 7-AAD staining based flow cytometry analysis (reference value: 8.12 %); format: functional
[9] = test system: HCT-116; experiment: Induction of apoptosis in human HCT-116 cells assessed as late apoptotic cells at 111.1 nM incubated for 48 hrs by annexin V and 7-AAD staining based flow cytometry analysis (reference value: 8.59 %); format: functional
[10] = Half life in Sprague-Dawley rat at 5 mg/kg, iv; format: ADME, organism-based; conditions: in vivo
[11] = Half life in Sprague-Dawley rat at 25 mg/kg, po; format: ADME, organism-based; conditions: in vivo
[12] = Cmax in Sprague-Dawley rat at 5 mg/kg, iv; format: ADME, organism-based; parameters: route intravenous, dose 5 mg/kg; conditions: in vivo
[13] = Cmax in Sprague-Dawley rat at 25 mg/kg, po; format: ADME, organism-based; parameters: route oral, dose 25 mg/kg; conditions: in vivo
[14] = AUC (0 to infinity) in Sprague-Dawley rat at 5 mg/kg, iv; format: ADME, organism-based; parameters: route intravenous, time infinity, dose 5 mg/kg; conditions: in vivo
[15] = Clearance in Sprague-Dawley rat at 5 mg/kg, iv; format: ADME, organism-based; conditions: in vivo
[16] = Oral bioavailability in Sprague-Dawley rat at 25 mg/kg; format: ADME, organism-based; conditions: in vivo
[17] = test system: HCT-116; experiment: Antitumor activity at human HCT-116 cells xenografted in CB17-SCID mouse assessed as tumor growth inhibition at 50 mg/kg, po administered daily, 2days on/ 4 days off and measured every 2 days for 16 days relative to control; format: functional; conditions: HCT-116, po, 384 h, time 16 day, read-out: TGI
[18] = test system: HCT-116; experiment: Antitumor activity at human HCT-116 cells xenografted in CB17-SCID mouse assessed as tumor growth inhibition at 50 mg/kg, po administered once daily for 16 days in combination with paclitaxel at 20 mg/kg, ip once weekly relative to control; format: functional; conditions: HCT-116, 384 h, time 16 day, read-out: TGI
[19] = Toxicity in CB17-SCID mouse xenografted with human HCT-116 cells xenografted assessed as body weight loss at 50 mg/kg, po administered once daily relative to control; format: organism-based; conditions: in vivo
[20] = target: MAP/microtubule affinity-regulating kinase 3 (Homo sapiens, UniProt P27448); conditions: dose 100.0 nM
[21] = target: Mitogen-activated protein kinase 10 (Homo sapiens) (UniProt P53779); conditions: dose 100.0 nM
Sequence of Mitogen-activated protein kinase 10 (Homo sapiens) (P53779 whole entry): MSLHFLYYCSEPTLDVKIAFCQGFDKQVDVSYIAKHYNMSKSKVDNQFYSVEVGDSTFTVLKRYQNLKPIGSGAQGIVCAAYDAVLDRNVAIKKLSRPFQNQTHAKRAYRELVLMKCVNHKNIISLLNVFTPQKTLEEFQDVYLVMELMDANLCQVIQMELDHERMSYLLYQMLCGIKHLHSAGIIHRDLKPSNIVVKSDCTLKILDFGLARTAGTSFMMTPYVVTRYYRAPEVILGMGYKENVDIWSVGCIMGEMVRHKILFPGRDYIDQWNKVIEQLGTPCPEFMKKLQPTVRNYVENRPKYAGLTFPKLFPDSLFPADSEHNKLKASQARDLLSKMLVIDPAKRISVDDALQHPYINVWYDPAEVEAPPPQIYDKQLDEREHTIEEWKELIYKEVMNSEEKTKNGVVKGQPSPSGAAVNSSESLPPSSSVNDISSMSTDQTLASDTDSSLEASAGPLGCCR
Description: Inhibition of human full length JNK3 at 100 nM by direct-filter Binding radiometric assay relative to control

[22] = target: Death-associated protein kinase 1 (Homo sapiens) (UniProt P53355); conditions: dose 100.0 nM
Sequence of Death-associated protein kinase 1 (Homo sapiens) (P53355 whole entry, looked up): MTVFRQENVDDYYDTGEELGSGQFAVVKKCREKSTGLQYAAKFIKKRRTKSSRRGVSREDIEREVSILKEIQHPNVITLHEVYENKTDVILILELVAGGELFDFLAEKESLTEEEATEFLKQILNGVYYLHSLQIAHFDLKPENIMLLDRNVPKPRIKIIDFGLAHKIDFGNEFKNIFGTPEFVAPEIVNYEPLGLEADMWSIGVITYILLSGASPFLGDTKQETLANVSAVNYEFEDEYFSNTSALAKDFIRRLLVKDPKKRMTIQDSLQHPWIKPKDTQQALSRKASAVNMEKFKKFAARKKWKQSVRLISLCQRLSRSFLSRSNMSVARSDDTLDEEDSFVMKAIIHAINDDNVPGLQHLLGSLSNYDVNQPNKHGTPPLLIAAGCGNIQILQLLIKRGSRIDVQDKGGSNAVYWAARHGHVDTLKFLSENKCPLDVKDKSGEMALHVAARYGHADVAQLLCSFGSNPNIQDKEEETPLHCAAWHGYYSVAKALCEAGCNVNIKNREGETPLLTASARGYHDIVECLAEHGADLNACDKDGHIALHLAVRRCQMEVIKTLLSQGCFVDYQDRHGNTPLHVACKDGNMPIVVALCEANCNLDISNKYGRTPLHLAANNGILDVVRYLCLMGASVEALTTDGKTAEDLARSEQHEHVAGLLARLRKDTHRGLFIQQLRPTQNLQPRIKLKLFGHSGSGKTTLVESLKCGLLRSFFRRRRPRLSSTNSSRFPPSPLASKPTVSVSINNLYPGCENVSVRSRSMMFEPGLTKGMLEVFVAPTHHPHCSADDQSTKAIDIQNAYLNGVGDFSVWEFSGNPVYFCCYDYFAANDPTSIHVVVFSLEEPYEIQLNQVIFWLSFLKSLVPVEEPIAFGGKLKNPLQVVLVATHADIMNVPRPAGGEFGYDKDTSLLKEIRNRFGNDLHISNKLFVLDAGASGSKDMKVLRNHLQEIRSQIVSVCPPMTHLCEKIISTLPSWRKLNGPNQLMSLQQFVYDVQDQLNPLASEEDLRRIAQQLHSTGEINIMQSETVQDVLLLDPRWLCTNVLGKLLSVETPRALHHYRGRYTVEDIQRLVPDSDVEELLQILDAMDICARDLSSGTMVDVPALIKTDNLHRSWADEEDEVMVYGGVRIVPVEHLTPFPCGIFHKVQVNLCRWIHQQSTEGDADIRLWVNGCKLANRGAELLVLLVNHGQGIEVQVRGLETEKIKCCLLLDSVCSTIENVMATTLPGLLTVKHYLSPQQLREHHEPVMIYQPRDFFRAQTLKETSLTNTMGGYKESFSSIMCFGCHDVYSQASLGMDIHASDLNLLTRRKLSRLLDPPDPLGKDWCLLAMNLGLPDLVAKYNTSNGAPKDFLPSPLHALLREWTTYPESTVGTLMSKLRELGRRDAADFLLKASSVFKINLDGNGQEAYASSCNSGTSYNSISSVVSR

[23] = target: NUAK family SNF1-like kinase 2 (Homo sapiens) (UniProt Q9H093); conditions: dose 100.0 nM
[24] = target: Maternal embryonic leucine zipper kinase (Homo sapiens) (UniProt Q14680); conditions: dose 100.0 nM
Sequence of Maternal embryonic leucine zipper kinase (Homo sapiens) (Q14680 whole entry, looked up): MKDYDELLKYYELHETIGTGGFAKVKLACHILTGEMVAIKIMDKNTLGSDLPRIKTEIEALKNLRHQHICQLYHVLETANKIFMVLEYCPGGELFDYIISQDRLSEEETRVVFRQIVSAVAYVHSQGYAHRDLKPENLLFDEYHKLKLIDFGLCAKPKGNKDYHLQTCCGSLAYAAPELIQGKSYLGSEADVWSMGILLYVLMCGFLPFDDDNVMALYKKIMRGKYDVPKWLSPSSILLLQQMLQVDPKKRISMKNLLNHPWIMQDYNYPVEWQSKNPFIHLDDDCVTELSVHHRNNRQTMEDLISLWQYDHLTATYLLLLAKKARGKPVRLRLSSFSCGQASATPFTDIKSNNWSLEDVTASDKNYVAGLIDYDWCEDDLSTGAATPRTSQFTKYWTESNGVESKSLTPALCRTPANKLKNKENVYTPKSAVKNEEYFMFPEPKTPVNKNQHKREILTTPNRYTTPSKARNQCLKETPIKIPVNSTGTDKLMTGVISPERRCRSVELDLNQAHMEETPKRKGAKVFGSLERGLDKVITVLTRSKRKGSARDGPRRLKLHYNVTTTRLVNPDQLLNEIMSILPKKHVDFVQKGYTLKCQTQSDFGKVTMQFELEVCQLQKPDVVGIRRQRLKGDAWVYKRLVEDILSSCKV

[25] = target: Casein kinase II subunit alpha (Homo sapiens) (UniProt P68400); conditions: dose 100.0 nM
[26] = target: Death-associated protein kinase 2 (Homo sapiens) (UniProt Q9UIK4); conditions: dose 100.0 nM
Sequence of Death-associated protein kinase 2 (Homo sapiens) (Q9UIK4 whole entry, looked up, the tested form may be a part): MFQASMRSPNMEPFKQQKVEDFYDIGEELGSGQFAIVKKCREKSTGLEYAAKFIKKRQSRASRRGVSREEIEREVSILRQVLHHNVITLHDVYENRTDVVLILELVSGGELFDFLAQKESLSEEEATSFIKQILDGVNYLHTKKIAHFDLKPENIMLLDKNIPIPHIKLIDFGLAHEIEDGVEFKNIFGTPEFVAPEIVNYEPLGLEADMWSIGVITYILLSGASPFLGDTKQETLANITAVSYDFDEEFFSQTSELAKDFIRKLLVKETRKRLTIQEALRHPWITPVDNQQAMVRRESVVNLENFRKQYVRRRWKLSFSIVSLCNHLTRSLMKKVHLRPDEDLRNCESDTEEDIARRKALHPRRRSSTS
Description: Inhibition of human recombinant full length DAPK2 using Calmodulin as substrate at 100 nM direct filter-binding radiometric kinase activity assay relative to control

[27] = target: Phosphatidylinositol 3-kinase C2 domain-containing subunit gamma (Homo sapiens) (UniProt O75747); conditions: dose 100.0 nM
Description: Inhibition of PIK3C2G (unknown origin) at 100 nM direct filter-binding radiometric kinase activity assay relative to control

[28] = target: T1, Interleukin-1 receptor-associated kinase 1; conditions: dose 100.0 nM
Description: Inhibition of human recombinant IRAK1 (198 to end) using myelin ba as substrate at 100 nM direct filter-binding radiometric kinase activity assay relative to control

[29] = target: Myotonin-protein kinase (Homo sapiens) (UniProt Q09013); conditions: dose 100.0 nM
Sequence of Myotonin-protein kinase (Homo sapiens) (Q09013 whole entry): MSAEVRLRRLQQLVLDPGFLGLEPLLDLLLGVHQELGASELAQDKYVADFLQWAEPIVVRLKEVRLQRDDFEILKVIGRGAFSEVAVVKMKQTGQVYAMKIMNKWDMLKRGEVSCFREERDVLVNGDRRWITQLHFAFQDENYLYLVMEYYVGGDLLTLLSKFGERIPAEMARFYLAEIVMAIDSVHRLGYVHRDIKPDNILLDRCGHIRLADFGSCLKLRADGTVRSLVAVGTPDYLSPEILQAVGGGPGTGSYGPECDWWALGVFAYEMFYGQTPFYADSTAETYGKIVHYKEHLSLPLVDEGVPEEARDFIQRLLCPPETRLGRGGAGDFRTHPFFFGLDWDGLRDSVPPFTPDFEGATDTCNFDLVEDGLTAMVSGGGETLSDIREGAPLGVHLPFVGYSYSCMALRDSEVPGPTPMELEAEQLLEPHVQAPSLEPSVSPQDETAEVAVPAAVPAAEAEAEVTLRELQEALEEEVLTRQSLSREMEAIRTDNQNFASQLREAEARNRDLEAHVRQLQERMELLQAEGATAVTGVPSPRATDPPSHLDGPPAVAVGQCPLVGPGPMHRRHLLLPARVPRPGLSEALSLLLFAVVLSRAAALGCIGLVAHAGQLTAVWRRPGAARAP
Description: Inhibition of human recombinant DMPK (1 to 549) using Axltide at 100 nM direct filter-binding radiometric kinase activity assay relative to control

[30] = target: Serine/threonine-protein kinase ULK1 (Homo sapiens) (UniProt O75385); conditions: dose 100.0 nM
Description: Inhibition of human recombinat ULK1 (1 to 314) using casein as substrate at 100 nM direct filter-binding radiometric kinase activity assay relative to control

[31] = target: Mitogen-activated protein kinase 8 (Homo sapiens) (UniProt P45983); conditions: dose 100.0 nM
Sequence of Mitogen-activated protein kinase 8 (Homo sapiens) (P45983 whole entry): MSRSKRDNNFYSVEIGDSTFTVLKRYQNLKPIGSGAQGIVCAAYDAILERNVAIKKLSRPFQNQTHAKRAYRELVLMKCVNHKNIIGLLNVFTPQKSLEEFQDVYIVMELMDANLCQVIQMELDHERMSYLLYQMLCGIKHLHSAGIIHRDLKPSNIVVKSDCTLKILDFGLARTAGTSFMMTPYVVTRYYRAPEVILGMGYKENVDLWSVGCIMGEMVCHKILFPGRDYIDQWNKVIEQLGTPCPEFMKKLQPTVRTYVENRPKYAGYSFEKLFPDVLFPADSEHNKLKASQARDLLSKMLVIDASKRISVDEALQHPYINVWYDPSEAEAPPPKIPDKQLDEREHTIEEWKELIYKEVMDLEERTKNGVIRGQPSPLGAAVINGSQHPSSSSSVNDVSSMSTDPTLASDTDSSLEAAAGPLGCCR
Description: Inhibition of human full length JNK-1 using ATF2 as substrate at 100 nM direct filter-binding radiometric kinase activity assay relative to control

Kd [1]: > 1000 nM | Kd [2]: > 1000 nM | Kd [3]: > 1000 nM | IC50 [4]: 410 nM | IC50 [5]: 1090 nM | half-life [10]: 3.58 h | half-life [11]: 6.01 h | Cmax [12]: 2530 ng/mL | Cmax [13]: 1230 ng/mL | AUC(0-inf) [14]: 5310 ng·h/mL | clearance [15]: 15.8 mL/min/kg | bioavailability [16]: 45.2% | inhibition [20]: 92% | inhibition [21]: 87% | inhibition [23]: 84% | inhibition [24]: 77% | inhibition [25]: 69% | inhibition [27]: 94.4% | inhibition [28]: 91.8% | inhibition [29]: 81% | inhibition [30]: 68% | inhibition [31]: 75%
SMILES: COc1cc(N2CCN(C)CC2)ccc1Nc1ncc2c(C)cc(=O)n([C@H]3CC[C@@H](NC(=O)C4CCCCC4)CC3)c2n1
viability at 0.1111 µM [6]: 89.5% | Activity [7]: 4.46% | Activity [8]: 18.81% | Activity [9]: 5.3% | inhibition in vivo at 50 mg/kg [17]: 29% | inhibition in vivo at 50 mg/kg [18]: 78% | Activity [19]: < 15% | inhibition [22]: 85% | inhibition [26]: 65%
